# Laboratory results from article PMC10672241, “New Cyclopiane Diterpenes and Polyketide Derivatives from Marine Sediment-Derived Fungus Penicillium antarcticum KMM 4670 and Their Biological Activities” (Marine Drugs, 2023).
# Read-outs that look alike come from different tables or passages of the source.
# Legend:
# [1] = in vivo assay; cited from earlier work
# Candida albicans KMM 455 = test: Antimicrobial activity: C. albicans growth (OD620, 96-well broth); format: cell-based; details: for inhibition at 12.5 µM: KMM455, 12.5 µM
# Method: (§1) The yeast-like fungi of Candida albicans KMM 455 and bacterial strains Staphylococcus aureus ATCC 21027 and Escherichia coli VKPM (B-7935) (Collection of Marine Microorganisms PIBOC FEB RAS) were cultured on solid medium Mueller Hinton broth with agar (16.0 g/L) in a Petri dish at 37 °C for 24 h.
# (§2) The assays were performed in 96-well microplates in appropriate Mueller Hinton broth. Each well contained 90 µL of bacterial or of yeast-like fungi suspension (10^9 CFU/mL). Then, 10 µL of a compound diluted at concentrations from 1.5 µM to 100.0 µM using two-fold dilution were added (DMSO concentration <1%). Culture plates were incubated for 18 h at 37 °C, and the OD620 was measured using a Multiskan FS spectrophotometer (Thermo Scientific Inc., Beverly, MA, USA). The antibiotic gentamicin and the antifungal agent nitrofungin were used as positive controls at 1 mg/mL; 1% DMSO in PBS served as a negative control.
# [2] = system: Staphylococcus aureus ATCC 21027; test: Antimicrobial activity: S. aureus growth (OD620, 96-well broth); format: cell-based; details: for inhibition at 12.5 µM / inhibition at 100 µM: Staphylococcus aureus; for inhibition at 12.5 µM: ATCC21027, 12.5 µM; for inhibition at 100 µM: ATCC21027, 100 µM
# Method: as §1, §2
# [3] = system: Escherichia coli VKPM (B-7935); test: Antimicrobial activity: E. coli growth (OD620, 96-well broth); format: cell-based
# Method: as §1, §2
# Escherichia coli [4] = system: Escherichia coli; set-up: method as in PMID 31226283; details: bacterial suspension 10^6 CFU per milliliter; cited from earlier work
# Staphylococcus aureus [5] = system: Staphylococcus aureus; set-up: method as in PMID 31226283; details: bacterial suspension 10^6 CFU per milliliter; cited from earlier work
# [6] = system: S. aureus biofilm formation; test: Crystal violet biofilm formation assay, S. aureus; format: cell-based, Staphylococcus aureus; details: for IC50: Staphylococcus aureus, read-out: half-maximal concentration (IC50) of the biofilm formation inhibition; for prevention of the biofilm formation of S. aureus: concentration not given
# Method: (§3) The inhibition reducing biofilm formation and growth was assessed using the crystal violet biofilm assay as described. Overnight cultures of bacteria S. aureus and E. coli and yeast-like fungi C. albicans were inoculated into Mueller–Hinton broth at a concentration of 10^9 CFU/mL. A total of 90µL of this cell suspension was then dispensed into 96-well microtiter plates containing 10 µL of different concentrations of compounds 1–6. After 24 h growth at 37 °C, the plates were washed with PBS to remove unbound cells. Next, the wells were stained with 0.1% crystal violet solution for 10 min at 37 °C. At the completion of the incubation, plates were washed 3 times with PBS and dried. Then, the crystal violet dye from the biofilm was solubilized with 100 µL of ethanol. A total of 100 µL of this solution was then moved to a new microtiter plate for absorbance measurement at λ = 570 nm. The results were reported as percent inhibition normalized to the wild-type control.
# H9c2 cardiomyocytes = test: H9c2 cell viability (MTT) assay; format: cell-based, rat; details: for Cell Viability: 24 h, MTT; for toxicity toward normal cardiomyocytes: at the concentrations in which they affected the growth of microorganisms
# Method: (§4) The rat cardiomyocytes H9c2 cells were kindly provided by Prof. Dr. Gunhild von Amsberg from Martini-Klinik Prostate Cancer Center, University Hospital Hamburg-Eppendorf, Hamburg, Germany.
# (§5) The H9c2 cells were cultured in DMEM medium (Biolot, St. Petersburg, Russia) containing 10% fetal bovine serum (Biolot, St. Petersburg, Russia) and 1% penicillin/streptomycin (Biolot, St. Petersburg, Russia) at 37 °C in a humidified atmosphere with 5% (v/v) CO2.
# (§6) The H9c2 cells were seeded at concentrations of 3 × 10^3 cell/well, and the experiments were started after 24 h. The compounds at concentrations up to 100 µM were added into the wells for 24 h, and the viability of the cells was measured with an MTT (3-(4,5-dimethylthiazol-2-yl)-2,5-diphenyltetrazolium bromide) assay, which was performed according to the manufacturer’s instructions (Sigma-Aldrich, Munich, Germany). All compounds were dissolved with DMSO so that the final concentration of DMSO in the cell culture was not more than 1%. Moreover, DMSO was used as a control. The results were presented as a percent of the control data and calculated IC50.
# Escherichia coli [7] = test: Literature antibacterial activity against Escherichia coli; format: cell-based; details: calculated from 50 μg/mL
# sortase A from S. aureus = target: T1, sortase A from S. aureus (Staphylococcus aureus, UniProt Q2FV99); test: Sortase A activity inhibition assay (SensoLyte 520 kit, cell-free); format: biochemical; details: for inhibition of sortase A activity: 50 µM, after 10 min of incubation; for inhibition at 50 µM: read-out: inhibition of sortase A activity, 50 µM, after 10 min of incubation
# T1 construct: purchased AnaSpec AS-72229
# T1 sequence (Q2FV99 whole entry): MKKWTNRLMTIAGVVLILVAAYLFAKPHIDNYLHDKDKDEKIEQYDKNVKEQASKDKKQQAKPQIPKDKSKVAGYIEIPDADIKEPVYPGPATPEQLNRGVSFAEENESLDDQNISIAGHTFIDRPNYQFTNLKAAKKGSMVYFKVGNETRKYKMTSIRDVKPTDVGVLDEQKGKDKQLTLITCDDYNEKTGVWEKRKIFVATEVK
# Method: The enzymatic activity of sortase A from S. aureus was determined using SensoLyte 520 Sortase A Activity Assay Kit Fluorimetric (AnaSpec AS-72229, AnaSpec, San Jose, CA, USA) in accordance with the manufacturer’s instructions. […] DMSO at a concentration of 0.8% was used as a control. 4-(Hydroxymercuri)benzoic acid (PCMB) was used as sortase A enzyme activity inhibitor. Fluorescence was measured with a plate reader PHERAStar FS (BMG Labtech, Offenburg, Germany) for 60 min, with a time interval of 5 min. The data were processed with MARS Data Analysis v. 3.01R2 (BMG Labtech, Offenburg, Germany). The results were presented as relative fluorescent units (RFUs) and percentage of the control data, calculated using STATISTICA 10.0 software.
# [8] = system: C. albicans biofilm formation; test: Crystal violet biofilm formation assay, C. albicans; format: cell-based, Candida albicans; details: for inhibition of C. albicans biofilm formation: concentrations from 12.5 to 100 µM
# Method: as §3
# [9] = system: E. coli biofilm formation; test: Crystal violet biofilm formation assay, E. coli; format: cell-based, Escherichia coli
# Method: as §3
# [10] = H9c2 cell viability (MTT) assay; format: cell-based, rat; details: rat, H9c2 cardiomyocytes, 24 h, MTT
# Method: as §4, §5, §6
# Staphylococcus aureus [11] = test: Literature antibacterial activity against Staphylococcus aureus; format: cell-based; details: calculated from 100 μg/mL
# [12] = concentrations from 12.5 to 100 µM
Structure (SMILES),inhibition of S. aureus growth ([2]; 12.5 µM),"inhibition at 12.5 µM ([3]; Escherichia coli, 12.5 µM)",inhibition of C. albicans growth (Candida albicans KMM 455; [12]),inhibition at 12.5 µM [2],inhibition at 100 µM [2],"inhibition at 100 µM ([3]; Escherichia coli, 100 µM)",inhibition of C. albicans biofilm formation [8],prevention of S. aureus biofilm formation ([6]; 100 µM),"viability at 24 h, 1 µM [10]","viability at 24 h, 10 µM [10]","viability at 24 h, 100 µM [10]",inhibition at 50 µM (sortase A from S. aureus),other results
"C[C@H]1CCC[C@H](C[C@H]2Cc3cc(O)cc(O)c3C(=O)O2)O1 [Compound 7, cladosporin]",–,–,–,–,–,–,–,–,–,–,–,–,clearance rate in the body [1]: high; oral bioavailability [1]: poor
"CC1C=CC(=O)C2(C)CCC3C4C(C)(CC(O)C4(C)C)CC132 (stereo not shown) [Compound 3, conidiogenone F]",did not influence,24.3%,–,–,–,–,–,–,–,–,–,–,inhibition of C. albicans growth (Candida albicans KMM 455; 12.5 µM): 26.5%; inhibition of S. aureus growth ([2]; 100 µM): 17.6%; inhibition of E. coli growth ([3]; 100 µM): 36.4%; concentration of antibacterial activity against Escherichia coli (Escherichia coli [4]): 50 µg/mL; concentration of antibacterial activity against Staphylococcus aureus (Staphylococcus aureus [5]): > 100 µg/mL; prevention of S. aureus biofilm formation ([6]; only at concentrations of 50 µM and 100 µM): 10–15%; Cell Viability (H9c2 cardiomyocytes; 1 µM): 103.3 ± 3.2%; Cell Viability (H9c2 cardiomyocytes; 10 µM): 92.9 ± 2.5%; Cell Viability (H9c2 cardiomyocytes; 100 µM): 109.7 ± 9.2%; concentration at which activity was recorded (E. coli) (Escherichia coli [7]): 166 µM; inhibition of sortase A activity (sortase A from S. aureus): 13.1%
"CC1C=CC(=O)C2(C)CCC3C4C(C)(CC(=O)C4(C)C)CC132 (stereo not shown) [Compound 4, leptosphin C]",–,7.2%,38.7–44.8%,10.3%,42.4%,41.7%,30.6–36.4%,54.5%,107 ± 2.9%,102 ± 4.6%,92.3 ± 1.9%,20%,concentration of antibacterial activity against Escherichia coli (Escherichia coli [4]): > 100 µg/mL; effect on biofilm formation by C. albicans (in words) [8]: affected the biofilm formation; concentration of antibacterial activity against Staphylococcus aureus (Staphylococcus aureus [5]): 100 µg/mL; effect on biofilm formation of E. coli (in words) [9]: affect the biofilm formation; prevention of E. coli biofilm formation ([9]; concentrations of 25–100 µM): 30–40%; IC50 ([6]; S. aureus biofilm): 85.5 µM; concentration at which activity was recorded (S. aureus) (Staphylococcus aureus [11]): 333 µM
"C[C@H]1CCC[C@H](CC(=O)O)O1 [Compound 6, 2-((2R,6S)-6-methyltetrahydro-2H-pyran-2-yl)acetic acid]",–,27.7%,34.7-52.1%,25.6%,46.5%,56.9%,14.7–23.1%,–,98.1 ± 1.6%,80.9 ± 2.9%,54.6 ± 2.1%,16.8%,"IC50 (Candida albicans KMM 455; Candida albicans, KMM455): 89.9 µM; IC50 ([3]; Escherichia coli, read-out: IC50 of E. coli growth inhibition): 84.9 µM; effect on biofilm formation by C. albicans (in words) [8]: affected the biofilm formation; prevention of the biofilm formation of S. aureus [6]: 30–40%; toxicity toward normal cardiomyocytes (H9c2 cardiomyocytes): significant toxicity"
"C[C@H]1CCC[C@H](C[C@@H](O)CC(=O)O)O1 [Compound 5, antaketide A]",did not show any influence,12.5%,36.2–48.4%,–,48.5%,40.9%,did not affect,–,94.4 ± 3.1%,88.5 ± 3.1%,74.1 ± 4.9%,25.5%,"effect on biofilm formation of E. coli (in words) [9]: affect the biofilm formation; prevention of E. coli biofilm formation ([9]; concentrations of 12.5–100 µM, respectively): 21–45%; prevention of the biofilm formation of S. aureus [6]: 30–40%; toxicity toward normal cardiomyocytes (H9c2 cardiomyocytes): significant toxicity"
"CC1C=CC(=O)C2(C)CCC3C4C(C)(CC(O)C4(C)C)CC132 (stereo not drawn) [Compound 2, 13-epi-conidiogenone F]",no effect,–,–,–,19.1%,27.3%,–,52.6%,98.1 ± 1.9%,107 ± 7.8%,–,–,inhibition at 12.5 µM (Candida albicans KMM 455; Candida albicans): 27.9%; inhibition of E. coli growth ([3]; 12.5 µM): not observed; prevention of S. aureus biofilm formation ([6]; 12.5 µM): 37.9%; IC50 [6]: 76.1 µM; decrease of H9c2 viability (H9c2 cardiomyocytes; 100 µM): ~30%; Cell Viability (H9c2 cardiomyocytes; 100 µM): 67.3 ± 3.1%; inhibition of sortase A activity (sortase A from S. aureus): 36.9%
"CC12CC(=O)C(C)(C)C1C1CCC3(C)C(=O)C=CC(C)(O)C13C2 (stereo not shown) [Compound 1, 4-hydroxyleptosphin C]",–,–,–,15.3%,29.3%,35.9%,–,34.5%,94.8 ± 5.9%,65.7 ± 9.4%,63.2 ± 0.5%,28.2%,inhibition at 12.5 µM (Candida albicans KMM 455; Candida albicans): 30.4%; inhibition of E. coli growth ([3]; 12.5 µM): not observed; prevention of S. aureus biofilm formation ([6]; 12.5 µM): 15.9%; decrease in H9c2 cell viability (H9c2 cardiomyocytes; 10 µM): ~30%; decrease of H9c2 viability (H9c2 cardiomyocytes; 100 µM): ~30%
